± gives the expanded uncertainty stated by the source.
settings: 298.15 K; 101.33 kPa; Liquid

Row | Structure (SMILES) | mass density [kg/m3]
1 | Cc1ccccc1N [2-methylaniline] | 994.343 ± 0.24
2 | CCCCCCCCCC [decane] | 726.412 ± 1.6
3 | CCCCCCC [heptane] | 679.627 ± 0.85
4 | CCCCCCCCCCCC [dodecane] | 741.54 ± 1.6

Further lines, results first:

Row | mass density [kg/m3] | Structure (SMILES)
5 | 698.636 ± 1.3 | CCCCCCCC [octane]
6 | 714.064 ± 1.3 | CCCCCCCCC [nonane]

From the NIST ThermoML archive (doi:10.1016/j.fluid.2007.01.022)
